Laboratory results reported in US6579881B2 (Eisai Co., Ltd., priority 1997, dated 2003).

Tests used:
serotonin 1A receptor = biological target: T1, serotonin 1A receptor (Rattus norvegicus, UniProt P19327); assay: Binding test on [3H] 8-hydroxy-dipropylaminotetralin (serotonin 1A receptor); details: [3H] 8-OH-DPAT 0.5 nM, receptor fraction of rat hippocampus; read-out: 5HT1a
T1 construct: To the receptor fraction of the hippocampus were added a test compound and 0.5 nM of [^3H]; 8-hydroxy-dipropylaminotetralin; from tissue; host or cells: SD rat hippocampus, membrane (receptor) fraction
T1 sequence (P19327 1-422): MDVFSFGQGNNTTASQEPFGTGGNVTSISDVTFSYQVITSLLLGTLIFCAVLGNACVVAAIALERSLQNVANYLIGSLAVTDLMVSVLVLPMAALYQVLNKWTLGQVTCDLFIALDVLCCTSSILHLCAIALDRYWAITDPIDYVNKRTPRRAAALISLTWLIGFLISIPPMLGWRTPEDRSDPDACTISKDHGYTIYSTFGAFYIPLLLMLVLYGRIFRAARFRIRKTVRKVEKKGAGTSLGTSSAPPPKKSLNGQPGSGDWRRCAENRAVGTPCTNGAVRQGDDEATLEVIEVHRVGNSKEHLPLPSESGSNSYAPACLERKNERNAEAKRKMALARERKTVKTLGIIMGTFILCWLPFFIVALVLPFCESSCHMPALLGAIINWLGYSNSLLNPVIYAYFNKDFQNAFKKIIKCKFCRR

serotonin 2 receptor = serotonin 2 receptor (Rattus norvegicus, UniProt P14842); assay: Binding test on [3H] ketanserin (serotonin 2 receptor); details: [3H] ketanserin 0.3 nM, receptor fraction of rat cerebral cortex; read-out: 5HT2
serotonin 2 receptor, sequence (P14842 whole entry): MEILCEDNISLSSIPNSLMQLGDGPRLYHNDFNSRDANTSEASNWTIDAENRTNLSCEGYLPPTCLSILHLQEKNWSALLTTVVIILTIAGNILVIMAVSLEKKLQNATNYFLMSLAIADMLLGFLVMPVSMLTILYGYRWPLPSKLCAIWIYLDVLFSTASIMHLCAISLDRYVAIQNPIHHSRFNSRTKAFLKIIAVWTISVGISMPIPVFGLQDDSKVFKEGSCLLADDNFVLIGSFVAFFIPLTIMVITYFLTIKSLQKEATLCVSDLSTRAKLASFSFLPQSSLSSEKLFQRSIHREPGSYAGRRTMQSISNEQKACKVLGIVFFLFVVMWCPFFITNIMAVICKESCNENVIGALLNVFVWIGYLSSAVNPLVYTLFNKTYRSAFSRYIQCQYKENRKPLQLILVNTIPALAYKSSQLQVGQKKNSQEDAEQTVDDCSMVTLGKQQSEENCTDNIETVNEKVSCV

Ki (serotonin 1A receptor)	Ki (serotonin 2 receptor)	Structure (SMILES)
0.06 nM	70.1 nM	Cn1cccc1-c1ccc2c(c1)N(C1CCN(CCc3ccc(F)cc3)CC1)CC2 [Example 173, 1-[1-(4-fluorophenethyl)piperidin-4-yl]-6-(1-methylpyrrol-2-yl)indoline]
0.24 nM	1.85 nM	OC(c1ccc2c(c1)N(C1CCN(CCc3ccc(F)cc3)CC1)CC2)c1ccccn1 (stereo not shown) [Example 174, 1-[1-(4-fluorophenethyl)piperidin-4-yl]-6-[1-hydroxy-1-(2-pyridyl)methyl]indoline]
1.49 nM	0.35 nM	Fc1ccc(CCN2CCC(N3CCc4ccc(Cc5ccccn5)cc43)CC2)cc1 [Example 175, 1-[1-(4-fluorophenethyl)piperidin-4-yl]-6-[1-(2-pyridyl)methyl]indoline]
1.67 nM	0.05 nM	OC(c1cccnc1)c1ccc2c(c1)N(C1CCN(CCc3ccc(F)cc3)CC1)CC2 (stereo not shown) [Example 176, 1-[1-(4-fluorophenethyl)piperidin-4-yl]-6-[1-hydroxy-1-(3-pyridyl)methyl]indoline]
0.25 nM	0.92 nM	Fc1ccc(CCN2CCC(N3CCc4ccc(Cc5cccnc5)cc43)CC2)cc1 [Example 177, 1-[1-(4-fluorophenethyl)piperidin-4-yl]-6-[1-(3-pyridyl)methyl]indoline]
10.2 nM	2.53 nM	OC(c1ccncc1)c1ccc2c(c1)N(C1CCN(CCc3ccc(F)cc3)CC1)CC2 (stereo not shown) [Example 178]
0.17 nM	0.41 nM	Fc1ccc(CCN2CCC(N3CCc4ccc(Cc5ccncc5)cc43)CC2)cc1 [Example 179, 1-[1-(4-fluorophenethyl)piperidin-4-yl]-6-(4-pyridylmethyl)indoline]
1030 nM	9.62 nM	CC(O)(c1ccc2c(c1)N(C1CCN(CCc3ccc(F)cc3)CC1)CC2)c1ccccn1 (stereo not shown) [Example 181, 1-[1-(4-fluorophenethyl)piperidin-4-yl]-6-[1-hydroxy-1-(2-pyridyl)ethyl]indoline]
1.18 nM	3.86 nM	O=C(c1cccnc1)c1ccc2c(c1)N(C1CCN(CCc3ccc(F)cc3)CC1)CC2 [Example 183, 1-[1-(4-fluorophenethyl)piperidin-4-yl]-6-(3-pyridylcarbonyl)indoline]
14.6 nM	4.73 nM	COc1ncccc1Cc1ccc2c(c1)N(C1CCN(CCc3ccc(F)cc3)CC1)CC2 [Example 185, 1-[1-(4-fluorophenethyl)piperidin-4-yl]-6-[1-(2-methoxypyridin-3-yl)methyl]indoline]
0.49 nM	0.33 nM	O=c1ccc(C(O)c2ccc3c(c2)N(C2CCN(CCc4ccc(F)cc4)CC2)CC3)c[nH]1 (stereo not shown) [Example 190, 1-[1-(4-fluorophenethyl)piperidin-4-yl]-6-[1-hydroxy-1-(2-pyridon-5-yl)methyl]indoline]
29.1 nM	0.32 nM	CN(C)c1ccc(C(O)c2ccc3c(c2)N(C2CCN(CCc4ccc(F)cc4)CC2)CC3)cn1 (stereo not shown) [Example 191, 1-[1-(4-fluorophenethyl)piperidin-4-yl]-6-[1-hydroxy-1-(2-dimethylaminopyridin-5-yl)methyl]indoline]
1.02 nM	2.9 nM	OC(c1ccc(Cl)nc1)c1ccc2c(c1)N(C1CCN(CCc3ccc(F)cc3)CC1)CC2 (stereo not shown) [Example 192, 1-[1-(4-fluorophenethyl)piperidin-4-yl]-6-[1-hydroxy-1-(2-chloropyridin-5-yl)methyl]indoline]
6.92 nM	2.88 nM	OC(c1ccc2c(c1)N(C1CCN(CCc3ccc(F)cc3)CC1)CC2)c1nccs1 (stereo not shown) [Example 193, 1-[1-(4-fluorophenethyl)piperidin-4-yl]-6-[1-(2-thiazolyl)-1-hydroxymethyl]indoline]
5.73 nM	1.15 nM	OC(c1ccc2c(c1)N(C1CCN(CCc3ccc(F)cc3)CC1)CC2)c1cscn1 (stereo not shown) [Example 195, 1-[1-(4-fluorophenethyl)piperidin-4-yl]-6-[1-(4-thiazolyl)-1-hydroxymethyl]indoline]
1.67 nM	1.17 nM	OC(c1ccc2c(c1)N(C1CCN(CCc3ccc(F)cc3)CC1)CC2)c1cncs1 (stereo not shown) [Example 196, 1-[1-(4-fluorophenethyl)piperidin-4-yl]-6-[1-(5-thiazolyl)-1-hydroxymethyl]indoline]

Ki (serotonin 1A receptor)	Ki (serotonin 2 receptor)	Structure (SMILES)
13.7 nM	2.21 nM	OC(c1cncnc1)c1ccc2c(c1)N(C1CCN(CCc3ccc(F)cc3)CC1)CC2 (stereo not shown) [Example 198, 1-[1-(4-fluorophenethyl)piperidin-4-yl]-6-[1-hydroxy-1-(pyrimidin-5-yl)methyl]indoline]
1.98 nM	1.19 nM	OC(c1ccc2c(c1)N(C1CCN(CCc3ccc(F)cc3)CC1)CC2)c1ccc[nH]1 (stereo not shown) [Example 199, 1-[1-(4-fluorophenethyl)piperidin-4-yl]-6-[1-hydroxy-1-(2-pyrrolyl)methyl]indoline]
2.57 nM	5.13 nM	O=C1CCCN1Cc1ccc2c(c1)N(C1CCN(CCc3ccc(F)cc3)CC1)CC2 [Example 202, 1-[1-(4-fluorophenethyl)piperidin-4-yl]-6-(2-pyrrolidon-1-yl)methylindoline]
0.55 nM	4.61 nM	O=C1CCCCN1Cc1ccc2c(c1)N(C1CCN(CCc3ccc(F)cc3)CC1)CC2 [Example 203, 1-[1-(4-fluorophenethyl)piperidin-4-yl]-6-(2-piperidon-1-yl)methylindole]
2.76 nM	0.12 nM	O=C1CCCC(=O)N1Cc1ccc2c(c1)N(C1CCN(CCc3ccc(F)cc3)CC1)CC2 [Example 205, 1-[1-(4-fluorophenethyl)piperidin-4-yl]-6-(glutarimido-1-yl)methylindoline]
0.81 nM	2.69 nM	O=C1CNC(=O)N1Cc1ccc2c(c1)N(C1CCN(CCc3ccc(F)cc3)CC1)CC2 [Example 207, 1-[1-(4-fluorophenethyl)piperidin-4-yl]-6-(2,4-imidazolidinedion-3-yl)methylindoline]
2.33 nM	1.05 nM	O=C1OCCN1Cc1ccc2c(c1)N(C1CCN(CCc3ccc(F)cc3)CC1)CC2 [Example 208, 1-[1-(4-fluorophenethyl)piperidin-4-yl]-6-(2-oxazolidon-3-yl)methylindoline]
6.98 nM	4.72 nM	O=C1CSC(=O)N1Cc1ccc2c(c1)N(C1CCN(CCc3ccc(F)cc3)CC1)CC2 [Example 209, 1-[1-(4-fluorophenethyl)piperidin-4-yl]-6-(2,4-thiazolidinedion-3-yl)methylindoline]
2.5 nM	4.93 nM	Fc1ccc(CCN2CCC(N3CCc4ccc(Cn5cccc5)cc43)CC2)cc1 [Example 210, 1-[1-(4-fluorophenethyl)piperidin-4-yl]-6-(pyrrol-1-yl)methylindoline]
0.53 nM	1.21 nM	Fc1ccc(CCN2CCC(N3CCc4ccc(Cn5ccnc5)cc43)CC2)cc1 [Example 211, 1-[1-(4-fluorophenethyl)piperidin-4-yl]-6-(imidazol-1-yl)methylindoline]
1.03 nM	0.18 nM	Fc1ccc(CCN2CCC(N3CCc4ccc(Cn5cncn5)cc43)CC2)cc1 [Example 213, 1-[1-(4-fluorophenethyl)piperidin-4-yl]-6-(1,2,4-triazol-2-yl)methylindoline]
3.5 nM	0.9 nM	Fc1ccc(CCN2CCC(N3CCc4ccc(Cc5nccs5)cc43)CC2)cc1 [Example 214, 1-[1-(4-fluorophenethyl)-piperidin-4-yl]-6-(2-thiazolyl)methylindoline]
126 nM	1 nM	COc1ccc(CC2CN(C3CCN(CCc4ccc(F)cc4)CC3)c3ccccc32)cc1 (stereo not shown) [Example 215, 1-[1-(4-fluorophenethyl)piperidin-4-yl]-3-(4-methoxybenzyl)indoline]
4.5 nM	11.7 nM	CS(=O)(=O)Nc1cc2c(cc1Cl)CCN2C1CCN(CCc2ccc(F)cc2)CC1 [Example 218, 1-[1-(4-fluorophenethyl)piperidin-4-yl]-5-chloro-6-methanesulfonylaminoindoline]
19.6 nM	30.9 nM	COc1cc2c(cc1Cl)CCN2C1CCN(CCc2ccc(F)cc2)CC1 [Example 219, 1-[1-(4-fluorophenethyl)piperidin-4-yl]-5-chloro-6-methoxyindoline]
1.9 nM	2.4 nM	CS(=O)(=O)Nc1ccc2c(c1)N(C1CCN(CCc3ccc(F)cc3F)CC1)CC2 [Example 221, 1-[1-(2,4-difluorophenethyl)piperidin-4-yl]-6-methanesulfonylaminoindoline]

Structure (SMILES)	Ki (serotonin 1A receptor)	Ki (serotonin 2 receptor)
O=C(c1ccc2c(c1)N(C1CCN(CCc3ccc(F)cc3)CC1)CC2)c1nccs1 [Example 194, 1-[1-(4-fluorophenethyl)piperidin-4-yl]-6-(2-thiazolylcarbonyl)indoline]	4.59 nM	> 200 nM
CN(C)Cc1ccc2c(c1)N(C1CCN(CCc3ccc(F)cc3)CC1)CC2 [Example 200, 1-[1-(4-fluorophenethyl)piperidin-4-yl]-6-N,N-dimethylaminomethylindoline]	4.84 nM	234 nM
Fc1ccc(CCN2CCC(N3CCc4ccc(-c5ccc(F)cc5)cc43)CC2)cc1 [Example 201, 1-[1-(4-fluorophenethyl)piperidin-4-yl]-6-(4-fluorophenyl)indoline]	7.05 nM	> 200 nM
